Results taken from publication PMC5218480 (PLoS ONE, 2017).

System: MV-4-11 cells
Experiment: Gene expression microarray analysis (Affymetrix PrimeView) and GSEA
Format: cell-based, human
Design: RFU PODN (11730768_x_at) / Fold change /veh PODN (11730768_x_at) / RFU LINC00158 (11744669_a_at) / Fold change /veh LINC00158 (11744669_a_at) / RFU DUSP10 (11751237_a_at) / Fold change /veh DUSP10 (11751237_a_at) / RFU ID3 (11757404_x_at) / Fold change /veh ID3 (11757404_x_at) / RFU PLEKHG5 (11737974_s_at) / Fold change /veh PLEKHG5 (11737974_s_at) / RFU LRRC4B (11730491_at) / Fold change /veh LRRC4B (11730491_at) / RFU GIMAP4 (11747438_a_at) / Fold change /veh GIMAP4 (11747438_a_at) / RFU KRT8 (11758183_x_at) / Fold change /veh KRT8 (11758183_x_at) / RFU CNN1 (11734310_a_at) / Fold change /veh CNN1 (11734310_a_at) / RFU VPS37D (11726825_at) / Fold change /veh VPS37D (11726825_at) / RFU C10orf10 (11716522_x_at) / Fold change /veh C10orf10 (11716522_x_at) / RFU KIR2DL2 /// KIR2DL4 /// KIR2DL5A /// KIR2DL5B /// KIR2DS1 /// KIR2DS2 /// KIR2DS3 /// KIR2DS4 /// KIR3DL3 /// KIR3DL3 /// KIR3DS1 (11738374_at) / Fold change /veh KIR2DL2 /// KIR2DL4 /// KIR2DL5A /// KIR2DL5B /// KIR2DS1 /// KIR2DS2 /// KIR2DS3 /// KIR2DS4 /// KIR3DL3 /// KIR3DL3 /// KIR3DS1 (11738374_at) / RFU C1QL1 (11718748_at) / Fold change /veh C1QL1 (11718748_at) / RFU TMPRSS4 (11747572_a_at) / Fold change /veh TMPRSS4 (11747572_a_at) / RFU HAMP (11756126_x_at) / Fold change /veh HAMP (11756126_x_at) / RFU RNFT2 (11725882_a_at) / Fold change /veh RNFT2 (11725882_a_at) / RFU NR4A2 (11747474_a_at) / Fold change /veh NR4A2 (11747474_a_at) / RFU ABCC12 (11746883_a_at) / Fold change /veh ABCC12 (11746883_a_at) / RFU TMEM136 (11760407_x_at) / Fold change /veh TMEM136 (11760407_x_at) / RFU CLDN22 /// WWC2 (11732394_at) / Fold change /veh CLDN22 /// WWC2 (11732394_at) / RFU HLA-DPB1 (11760878_x_at) / Fold change /veh HLA-DPB1 (11760878_x_at) / RFU SPINT1 (11716480_a_at) / Fold change /veh SPINT1 (11716480_a_at) / RFU GAP43 (11754022_s_at) / Fold change /veh GAP43 (11754022_s_at) / RFU A4GNT (11735810_at) / Fold change /veh A4GNT (11735810_at) / RFU PRB3 (11715151_x_at) / Fold change /veh PRB3 (11715151_x_at) / RFU TUBB4B (11761932_at) / Fold change /veh TUBB4B (11761932_at) / RFU CAPN14 (11732068_a_at) / Fold change /veh CAPN14 (11732068_a_at) / RFU TMCC2 (11721928_a_at) / Fold change /veh TMCC2 (11721928_a_at) / RFU IRGQ (11745062_a_at) / Fold change /veh IRGQ (11745062_a_at) / RFU FAM174B (11720279_a_at) / Fold change /veh FAM174B (11720279_a_at) / RFU TMPRSS4 (11748680_a_at) / Fold change /veh TMPRSS4 (11748680_a_at) / RFU FAM212B (11763350_a_at) / Fold change /veh FAM212B (11763350_a_at) / RFU PLEKHG5 (11743358_a_at) / Fold change /veh PLEKHG5 (11743358_a_at) / RFU ZSCAN30 (11745921_a_at) / Fold change /veh ZSCAN30 (11745921_a_at) / RFU CMKLR1 (11741424_a_at) / Fold change /veh CMKLR1 (11741424_a_at) / RFU LOC101060620 /// MAPK8IP1 (11723275_at) / Fold change /veh LOC101060620 /// MAPK8IP1 (11723275_at) / RFU SPTSSB (11747773_x_at) / Fold change /veh SPTSSB (11747773_x_at) / RFU PRSS12 (11739890_at) / Fold change /veh PRSS12 (11739890_at) / RFU BIN1 (11741810_x_at) / Fold change /veh BIN1 (11741810_x_at) / RFU WNT11 (11732464_a_at) / Fold change /veh WNT11 (11732464_a_at) / RFU C10orf10 (11716521_a_at) / Fold change /veh C10orf10 (11716521_a_at) / RFU C5orf56 (11738089_at) / Fold change /veh C5orf56 (11738089_at) / RFU CYB561 (11721691_x_at) / Fold change /veh CYB561 (11721691_x_at) / RFU ANKRD19P (11752326_a_at) / Fold change /veh ANKRD19P (11752326_a_at) / RFU OR2T12 /// OR2T33 /// OR2T8 (11738714_s_at) / Fold change /veh OR2T12 /// OR2T33 /// OR2T8 (11738714_s_at) / RFU VCAN (11748164_a_at) / Fold change /veh VCAN (11748164_a_at) / RFU JSRP1 (11732532_at) / Fold change /veh JSRP1 (11732532_at) / RFU KRTAP10-11 (11738290_x_at) / Fold change /veh KRTAP10-11 (11738290_x_at) / RFU MYO3A (11730013_a_at) / Fold change /veh MYO3A (11730013_a_at) / RFU EBF3 (11725865_a_at) / Fold change /veh EBF3 (11725865_a_at) / RFU CAMK2N1 (11719241_x_at) / Fold change /veh CAMK2N1 (11719241_x_at) / RFU C5orf56 (11738088_a_at) / Fold change /veh C5orf56 (11738088_a_at) / RFU OLFML3 (11715873_a_at) / Fold change /veh OLFML3 (11715873_a_at) / RFU LOC100653217 /// NTM (11731650_a_at) / Fold change /veh LOC100653217 /// NTM (11731650_a_at) / RFU MAPK11 (11762145_a_at) / Fold change /veh MAPK11 (11762145_a_at) / RFU FIZ1 (11724087_x_at) / Fold change /veh FIZ1 (11724087_x_at) / RFU OASL (11726364_x_at) / Fold change /veh OASL (11726364_x_at) / RFU SOX15 (11748057_x_at) / Fold change /veh SOX15 (11748057_x_at) / RFU CD79A (11719716_a_at) / Fold change /veh CD79A (11719716_a_at) / RFU HIST1H1D (11736915_at) / Fold change /veh HIST1H1D (11736915_at) / RFU CASKIN2 (11723855_a_at) / Fold change /veh CASKIN2 (11723855_a_at) / RFU LOC730098 (11760151_x_at) / Fold change /veh LOC730098 (11760151_x_at) / RFU OR4N2 (11742367_at) / Fold change /veh OR4N2 (11742367_at) / RFU PRRT2 (11749266_a_at) / Fold change /veh PRRT2 (11749266_a_at) / RFU SNX32 (11753110_a_at) / Fold change /veh SNX32 (11753110_a_at) / RFU CDHR5 (11726645_a_at) / Fold change /veh CDHR5 (11726645_a_at) / RFU RCAN1 (11760418_a_at) / Fold change /veh RCAN1 (11760418_a_at) / RFU FAM167A (11723789_a_at) / Fold change /veh FAM167A (11723789_a_at) / RFU FAM26E (11764081_at) / Fold change /veh FAM26E (11764081_at) / RFU ISYNA1 (11749810_s_at) / Fold change /veh ISYNA1 (11749810_s_at) / RFU ACY1 (11761880_at) / Fold change /veh ACY1 (11761880_at) / RFU 11764098_at / Fold change /veh 11764098_at / RFU SAMD14 (11745864_x_at) / Fold change /veh SAMD14 (11745864_x_at) / RFU NPB (11741838_a_at) / Fold change /veh NPB (11741838_a_at) / RFU TMPRSS6 (11731388_a_at) / Fold change /veh TMPRSS6 (11731388_a_at) / RFU KRTAP10-2 (11738614_at) / Fold change /veh KRTAP10-2 (11738614_at) / RFU ARHGAP8 /// PRR5-ARHGAP8 (11727945_x_at) / Fold change /veh ARHGAP8 /// PRR5-ARHGAP8 (11727945_x_at) / RFU KRTAP5-7 /// NADSYN1 (11734609_at) / Fold change /veh KRTAP5-7 /// NADSYN1 (11734609_at) / RFU RASL12 (11751679_a_at) / Fold change /veh RASL12 (11751679_a_at) / RFU CDKN2B (11736163_a_at) / Fold change /veh CDKN2B (11736163_a_at) / RFU PRF1 (11729649_at) / Fold change /veh PRF1 (11729649_at) / RFU, ZNF638 /// ZNF638-IT1 / Fold change vs veh, ZNF638 /// ZNF638-IT1 / RFU, PANK3 / Fold change vs veh, PANK3 / RFU, SH3YL1 / Fold change vs veh, SH3YL1 / RFU, ZEB2 / Fold change vs veh, ZEB2 / RFU, NRIP1 / Fold change vs veh, NRIP1 / RFU, PTTG1IP / Fold change vs veh, PTTG1IP / RFU, CAPN2 / Fold change vs veh, CAPN2 / RFU, MED14 / Fold change vs veh, MED14 / RFU, SNORA58 / Fold change vs veh, SNORA58 / RFU, C1orf63 / Fold change vs veh, C1orf63 / RFU, LRRFIP1 / Fold change vs veh, LRRFIP1 / RFU, NDUFAF7 / Fold change vs veh, NDUFAF7 / RFU, SLC12A2 / Fold change vs veh, SLC12A2 / RFU, IBTK / Fold change vs veh, IBTK / RFU, ESF1 / Fold change vs veh, ESF1 / Fold change vs veh, TMEM50B / RFU, TAOK1 / Fold change vs veh, TAOK1 / RFU, ACBD3 / Fold change vs veh, ACBD3 / RFU, TMA16 / Fold change vs veh, TMA16 / RFU, RWDD3 / Fold change vs veh, RWDD3 / RFU, BCAT1 / Fold change vs veh, BCAT1 / RFU, EDEM3 / Fold change vs veh, EDEM3 / RFU, TMEM33 / Fold change vs veh, TMEM33 / RFU, WDR75 / Fold change vs veh, WDR75 / RFU, AHCTF1 / Fold change vs veh, AHCTF1 / RFU, TFRC / Fold change vs veh, TFRC / RFU, ZDHHC17 / Fold change vs veh, ZDHHC17 / RFU, NOM1 / Fold change vs veh, NOM1 / RFU, ARL8B / Fold change vs veh, ARL8B / RFU, ZBTB11 / Fold change vs veh, ZBTB11 / RFU, TAMM41 / Fold change vs veh, TAMM41 / RFU, KIAA1704 /// LOC100996395 / Fold change vs veh, KIAA1704 /// LOC100996395 / RFU, ING1 / Fold change vs veh, ING1 / RFU, TRMT61B / Fold change vs veh, TRMT61B / RFU, FUBP3 / Fold change vs veh, FUBP3 / RFU, TP53 / Fold change vs veh, TP53 / RFU, TNKS2 / Fold change vs veh, TNKS2 / RFU, ZFP14 / Fold change vs veh, ZFP14 / RFU, ACTR2 / Fold change vs veh, ACTR2 / RFU, PPP3R1 / Fold change vs veh, PPP3R1 / RFU, PIK3R1 / Fold change vs veh, PIK3R1 / RFU, HNRNPA1 / Fold change vs veh, HNRNPA1 / RFU, RNF170 / Fold change vs veh, RNF170 / RFU, ZNF28 / Fold change vs veh, ZNF28 / RFU, RNGTT / Fold change vs veh, RNGTT / RFU, OGT / Fold change vs veh, OGT / RFU, BRD1 / Fold change vs veh, BRD1 / RFU, MARS / Fold change vs veh, MARS / RFU, ZNF655 / Fold change vs veh, ZNF655 / RFU, FAHD1 / Fold change vs veh, FAHD1 / RFU, BDP1 / Fold change vs veh, BDP1 / RFU, LRRCC1 / Fold change vs veh, LRRCC1 / RFU, ARID1A / Fold change vs veh, ARID1A / RFU, ZNF146 / Fold change vs veh, ZNF146 / RFU, ZNF330 / Fold change vs veh, ZNF330 / RFU, GPN3 / Fold change vs veh, GPN3 / RFU, C9orf123 / Fold change vs veh, C9orf123 / RFU, N4BP2L2 / Fold change vs veh, N4BP2L2 / RFU, ARFIP1 / Fold change vs veh, ARFIP1 / RFU, FAM179B / Fold change vs veh, FAM179B / RFU, BCL10 / Fold change vs veh, BCL10 / RFU, UHRF1BP1L / Fold change vs veh, UHRF1BP1L / RFU, BET1 / Fold change vs veh, BET1 / RFU, CNOT2 / Fold change vs veh, CNOT2 / RFU, ZNF268 / Fold change vs veh, ZNF268 / Fold change vs veh, ZNF507 / RFU, DGCR2 / Fold change vs veh, DGCR2 / RFU, WDSUB1 / Fold change vs veh, WDSUB1 / Fold change vs veh, HSP90B1 /// MIR3652 / RFU, ADSS / Fold change vs veh, ADSS / RFU, GK / Fold change vs veh, GK / RFU, ZNF148 / Fold change vs veh, ZNF148 / RFU, TAF9 / Fold change vs veh, TAF9 / RFU, SLC1A5 / Fold change vs veh, SLC1A5 / RFU, SLMO2 / Fold change vs veh, SLMO2 / RFU, ABCC4 / Fold change vs veh, ABCC4 / RFU, LOC101060439 /// RAP1B / Fold change vs veh, LOC101060439 /// RAP1B / RFU, RFX7 / Fold change vs veh, RFX7 / RFU, GTPBP10 / Fold change vs veh, GTPBP10 / RFU, CNEP1R1 / Fold change vs veh, CNEP1R1 / RFU, BIVM-ERCC5 /// ERCC5 / Fold change vs veh, BIVM-ERCC5 /// ERCC5 / RFU, ILF3 / Fold change vs veh, ILF3 / RFU 11762660_at / Fold change /veh 11762660_at / RFU VCAN (11757783_s_at) / Fold change /veh VCAN (11757783_s_at) / RFU DDX43 (11728927_at) / Fold change /veh DDX43 (11728927_at) / RFU KRT8 (11758188_x_at) / Fold change /veh KRT8 (11758188_x_at) / RFU NKD1 (11759106_at) / Fold change /veh NKD1 (11759106_at) / RFU SRD5A1 (11742802_a_at) / Fold change /veh SRD5A1 (11742802_a_at) / RFU TPSAB1 /// TPSB2 (11721975_s_at) / Fold change /veh TPSAB1 /// TPSB2 (11721975_s_at) / RFU GSTM3 (11746129_a_at) / Fold change /veh GSTM3 (11746129_a_at) / RFU IL23R (11737362_x_at) / Fold change /veh IL23R (11737362_x_at) / RFU TMEM51 (11727254_a_at) / Fold change /veh TMEM51 (11727254_a_at) / RFU PIWIL2 (11732686_x_at) / Fold change /veh PIWIL2 (11732686_x_at) / RFU ORM1 (11744905_x_at) / Fold change /veh ORM1 (11744905_x_at) / RFU CCDC152 (11743942_at) / Fold change /veh CCDC152 (11743942_at) / RFU ECM1 (11717891_a_at) / Fold change /veh ECM1 (11717891_a_at) / RFU IL23R (11748794_a_at) / Fold change /veh IL23R (11748794_a_at) / RFU TNFAIP8L3 (11732012_x_at) / Fold change /veh TNFAIP8L3 (11732012_x_at) / RFU MBOAT4 (11741988_at) / Fold change /veh MBOAT4 (11741988_at) / RFU 11764193_at / Fold change /veh 11764193_at / RFU TMEM53 (11763286_at) / Fold change /veh TMEM53 (11763286_at) / RFU MAGEB2 (11727129_at) / Fold change /veh MAGEB2 (11727129_at) / RFU TMEM200A (11744735_a_at) / Fold change /veh TMEM200A (11744735_a_at) / RFU CCDC152 (11751479_a_at) / Fold change /veh CCDC152 (11751479_a_at) / RFU FAM211A (11726209_a_at) / Fold change /veh FAM211A (11726209_a_at) / RFU RGS16 (11746705_a_at) / Fold change /veh RGS16 (11746705_a_at) / RFU VCAN (11755009_s_at) / Fold change /veh VCAN (11755009_s_at) / RFU RHOB (11743442_s_at) / Fold change /veh RHOB (11743442_s_at) / RFU RGS16 (11720943_a_at) / Fold change /veh RGS16 (11720943_a_at) / RFU RGS16 (11720944_at) / Fold change /veh RGS16 (11720944_at) / RFU, VPS4B / Fold change vs veh, VPS4B / RFU, CREB1 / Fold change vs veh, CREB1 / RFU, DNAJC13 / Fold change vs veh, DNAJC13 / RFU, GNAQ / Fold change vs veh, GNAQ / RFU, CDK5R1 / Fold change vs veh, CDK5R1 / RFU, ZRANB3 / Fold change vs veh, ZRANB3 / RFU, CUL4A / Fold change vs veh, CUL4A / RFU, CCNY / Fold change vs veh, CCNY / RFU, UFL1 / Fold change vs veh, UFL1 / RFU, COG3 / Fold change vs veh, COG3 / RFU, DIAPH2 / Fold change vs veh, DIAPH2 / RFU, SKA2 / Fold change vs veh, SKA2 / RFU, AFF3 / Fold change vs veh, AFF3 / RFU, LMF1 / Fold change vs veh, LMF1 / RFU, IPO11 / Fold change vs veh, IPO11 / RFU, DFFB / Fold change vs veh, DFFB / RFU, FOXP1 / Fold change vs veh, FOXP1 / RFU, CARD8 / Fold change vs veh, CARD8 / RFU, STRN3 / Fold change vs veh, STRN3 / RFU, ADK / Fold change vs veh, ADK / RFU, RASSF2 / Fold change vs veh, RASSF2 / RFU, WIPF1 / Fold change vs veh, WIPF1 / RFU, LARP1B / Fold change vs veh, LARP1B / RFU, RASA1 / Fold change vs veh, RASA1 / RFU, RB1 / Fold change vs veh, RB1 / RFU, PPFIA1 / Fold change vs veh, PPFIA1 / RFU, MAT2A / Fold change vs veh, MAT2A / RFU, CCT5 / Fold change vs veh, CCT5 / RFU, WDR92 / Fold change vs veh, WDR92 / RFU, CUX1 / Fold change vs veh, CUX1 / RFU, TTC7A / Fold change vs veh, TTC7A / RFU, TMEM135 / Fold change vs veh, TMEM135 / RFU, DEPTOR / Fold change vs veh, DEPTOR / RFU, CPM / Fold change vs veh, CPM / RFU, DNAJB6 / Fold change vs veh, DNAJB6 / RFU, CACNA2D3 / Fold change vs veh, CACNA2D3 / RFU, DTX4 / Fold change vs veh, DTX4 / RFU, TFCP2 / Fold change vs veh, TFCP2 / RFU, GMCL1 /// GMCL1P1 / Fold change vs veh, GMCL1 /// GMCL1P1 / RFU, AEBP2 / Fold change vs veh, AEBP2 / RFU, SNHG1 /// SNORD22 /// SNORD25 /// SNORD26 /// SNORD27 /// SNORD28 /// SNORD29 /// SNORD31 / Fold change vs veh, SNHG1 /// SNORD22 /// SNORD25 /// SNORD26 /// SNORD27 /// SNORD28 /// SNORD29 /// SNORD31 / Fold change (Aza/veh), C12orf56 (ProbeSet 11735607_a_at) / Fold change (ACY-1035/veh), C12orf56 (ProbeSet 11735607_a_at) / Fold change (Aza/veh), FGFR1OP (ProbeSet 11751329_s_at) / Fold change (ACY-1035/veh), FGFR1OP (ProbeSet 11751329_s_at) / Fold change (Aza/veh), VPS36 (ProbeSet 11739960_a_at) / Fold change (ACY-1035/veh), VPS36 (ProbeSet 11739960_a_at) / RFU SYPL1 (11715823_x_at) / Fold change /veh SYPL1 (11715823_x_at) / RFU IGFBP7 (11715501_s_at) / Fold change /veh IGFBP7 (11715501_s_at) / RFU REEP3 (11722064_at) / Fold change /veh REEP3 (11722064_at) / RFU IGLL1 (11728026_x_at) / Fold change /veh IGLL1 (11728026_x_at): dose or concentration left out as unconfirmed
Details: MV-4-11 cells, 48 hours

Nc1ccc(-c2cccs2)cc1NC(=O)c1ccc2c(c1)cc(C1CC1)n2CCN1CCOCC1 [ACY-1035]
Fold change /veh CYB561 (11721691_x_at): 0.97
